Holding throughout (assay type): cell-based, human
Assay [1] concerns Tie2. Description: Triton X-100 fractionation of MEC lysates, Tie2. As to the method:
Tie2 at EC-EC junctions form actin-rich complexes that are insoluble in Triton X-100-based lysis buffers but are soluble when distributed over the surface of the cell. Therefore, MEC monolayers were treated with various combinations of AXT107, Ang1, and Ang2 and cell lysates were fractionated by their solubility in Triton X-100-based lysis buffers. Experiments including VEGF 165 were also performed since VEGFR2 signaling often opposes the activities of Tie2. In each experiment, 100 μM AXT107 was used since it provided clear results relative to lower concentrations of AXT107.
Next, experiments were performed to determine whether or not relocation of Tie2 to the insoluble fraction was important for Tie2's activation by Ang2. Tie2 was immunoprecipitated from fractionated MEC lysates exposed to Ang2 with or without AXT107 and then immunoblotted for phospho-Tie2.
The isolation of Triton X-100 soluble and insoluble fractions was performed using modifications to previously-described procedures (see, e.g., Lampugnani et al., J Cell Biol. 1995; 129(1):203-217). FN1-coated six-well plates were seeded with 2.5×10^6 cells and cultured for forty-eight hours, as described above. The cultures were then serum starved for ninety minutes in EBM-2 media, treated with 100 μM AXT107 or DMSO vehicle, and fifteen minutes with 1 mM sodium vanadate. […] Samples were analyzed by western blot as described above. […]

The test system of assay [2] is F-actin. Description: F-actin immunofluorescence in MEC monolayers. The following applies: 200 ng/ml Ang2, increasing concentrations of AXT107. How it is done:
(§1) The jaggedness of these junctions is related to the structure of actin within the cell.
(§2) Glass-bottomed, 96-well plates with half well size were coated with 10 μg/ml FN1 for two hours at 37° C. The FN1 solution was then removed by aspiration and the plate seeded with 4×10^3 MECs in EGM-2MV media. After twenty-four hours, the cells were washed once with dPBS containing Ca^2+ and Mg^2+ to remove dead cells and the cells were allowed to grow for an additional twenty-four hours. For three-hour duration treatments (i.e., VE-cadherin), cells were washed twice with dPBS containing Ca^2+ and Mg^2+ and serum starved in EBM-2 for ninety minutes. The media was then removed and the cells were treated for three hours with 100 μl of EBM-2 media containing 200 ng/ml Ang2 or PBS and varying concentrations of AXT107 or DMSO. For fifteen minute-treated samples (i.e., phospho-Tie2), the cells were serum starved in EBM-2 media for 165 minutes, incubated for ninety minutes with varying concentrations of AXT107 or DMSO in EBM-2, and finally stimulated for fifteen minutes with 200 ng/ml Ang2 or PBS supplemented with peptide to retain the same concentrations. These times were chosen so that both treatment procedures would be completed at the same time. The cells were then washed twice with cold dPBS containing Ca^2+ and Mg^2+ and fixed in 10% neutral buffered formalin for fifteen minutes. […]

Assay [3] deals with VE-cadherin. Description: VE-cadherin western blot and immunofluorescence in MEC monolayers. How it is done:
as §1, §2

This is an account of results in US20190225670A1, “COMPOUNDS AND METHODS FOR ACTIVATING TIE2 SIGNALING” (ASCLEPIX THERAPEUTICS, LLC, priority 2016, published 2019).

In the case of LRRFSTAPFAFIDINDVINF [AXT107], the “amount of Tie2 in Triton X-100 insoluble fraction” value in assay [1] (100 μM AXT107, independent of growth factor treatment) was “increased amounts”. In assay [1] (MEC exposed to Ang2 with or without AXT107), the “phospho-Tie2 in fractionated lysates immunoprecipitated for Tie2” value is “observed only in the insoluble fractions of peptide-treated samples”. Further, the actin fiber arrangement entry in assay [2] is “became more cortical”. Further, the “distribution of VE-cadherin at junctions” value in assay [3] (200 ng/ml Ang2, increasing concentrations of AXT107) is on record as “became progressively smoother”. For the same sequence, the “total level of VE-cadherin” value in assay [3] (three hours of AXT107 and 200 ng/ml Ang2) is “remained unchanged”.
